Consider 17 compounds from US12649751B2 (Arcus Biosciences, Inc., priority 2022, dated 2026).

One experiment deals with HPK1 (Homo sapiens, UniProt Q92918). The experiment can be described thus: HPK1 Biochemical Assay (ADP-Glo luminescence; low ATP 10 μM or high ATP 200 μM). To be noted: HPK1 ADP-Glo assay. In general terms: ADP-Glo turns the ADP formed in a reaction into a luminescent signal.
Experiment [1] has as its system p-SLP-76 (Ser376) in Jurkat cells. As to the kind of experiment: pSLP76 Cellular Assay (AlphaLISA SureFire Ultra p-SLP-76 (Ser376), anti-CD3 activated Jurkat cells). Particulars: Homo sapiens; pSLP76 (Ser376) AlphaLISA, anti-CD3 activated Jurkat cells; read-out: Cellular Potency. The format is cell-based. The procedure, abridged: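 Jurkat cells, serum-starved overnight in Opti-MEM then in HBSS, preincubated 1 h at 37 °C with 22-point 2-fold compound dilutions, then stimulated with anti-CD3 (0.025 mg/ml added solution) for 45 min. Lysate p-SLP-76 (Ser376) measured by AlphaLISA at 570 nm; IC50 from 4-parameter logistic fit.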
Background: Alpha assays give light when donor and acceptor beads are brought close together.

Setting [2] is: high ATP (200 μM ATP, 5 nM HPK1), read-out: Biochemical Potency (high ATP).
The mark [3] stands for this setting: low ATP (10 μM ATP, 2 nM HPK1), read-out: Biochemical Potency (low ATP).

Like-named read-outs stand apart in the source and are kept apart here.

HPK1, sequence (Q92918 whole entry, species assumed): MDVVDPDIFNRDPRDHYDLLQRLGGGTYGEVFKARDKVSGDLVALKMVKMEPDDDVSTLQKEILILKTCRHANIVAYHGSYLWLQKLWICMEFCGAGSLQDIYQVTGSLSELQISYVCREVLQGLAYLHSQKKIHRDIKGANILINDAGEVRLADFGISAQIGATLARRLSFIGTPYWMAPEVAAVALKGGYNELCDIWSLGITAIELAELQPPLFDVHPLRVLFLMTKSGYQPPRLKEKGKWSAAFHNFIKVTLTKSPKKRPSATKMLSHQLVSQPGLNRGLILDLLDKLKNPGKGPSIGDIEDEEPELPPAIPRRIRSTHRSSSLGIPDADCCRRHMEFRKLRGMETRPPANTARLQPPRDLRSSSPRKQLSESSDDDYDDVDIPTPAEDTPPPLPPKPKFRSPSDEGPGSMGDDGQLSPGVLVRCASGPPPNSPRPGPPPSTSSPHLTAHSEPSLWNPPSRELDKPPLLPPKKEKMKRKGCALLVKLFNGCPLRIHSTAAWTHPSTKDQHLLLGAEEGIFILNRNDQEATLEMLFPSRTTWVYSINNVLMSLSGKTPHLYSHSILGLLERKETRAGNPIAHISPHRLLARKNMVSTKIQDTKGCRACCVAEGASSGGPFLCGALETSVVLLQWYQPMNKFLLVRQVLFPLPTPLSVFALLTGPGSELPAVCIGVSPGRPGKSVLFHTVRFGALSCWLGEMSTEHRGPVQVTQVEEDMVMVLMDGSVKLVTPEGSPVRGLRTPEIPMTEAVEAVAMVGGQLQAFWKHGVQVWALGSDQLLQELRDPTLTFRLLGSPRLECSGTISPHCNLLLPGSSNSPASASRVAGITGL

As for `Cc1cc(Nc2cc3nc(-c4cccc(C(=O)N5CCOCC5)c4)sc3cn2)nc(N2C[C@@H]3C[C@H]2CN3CCO)n1` [Example 565], the IC50 at HPK1 (setting [2]) is below 0.1 µM; in experiment [1], 0.1 to 1 µM.

`COCCN(C)C(=O)c1cccc(-c2nc3cc(Nc4cc(C)nc(N5C[C@@H]6C[C@H]5CN6C)n4)ncc3s2)c1` [Example 566]: the IC50 at HPK1 (setting [2]) is below 0.1 µM; in experiment [1] it was 0.1 to 1 µM.

Take `CCN1C[C@@H]2C[C@H]1CN2c1nc(C)cc(Nc2cc3nc(-c4cccc(COC5CC5)c4)sc3cn2)n1` [Example 567]: the figures for the IC50 (at HPK1 (setting [2]); in experiment [1]) were below 0.1 µM and 0.1 to 1 µM, respectively.

Regarding `CCN1C[C@@H]2C[C@H]1CN2c1nc(C)cc(Nc2cc3nc(-c4cccc(C(=O)N(C)C5CCN(C(C)=O)CC5)c4)sc3cn2)n1` [Example 568], the figures for the IC50 (on HPK1 (setting [2]); in experiment [1]) were 0.1 to 1 µM and 1 to 5 µM, respectively.

With `CC(=O)N1CCn2ncc(-c3nc4cc(Nc5cc(C)nc(N6C[C@@H]7C[C@H]6CN7C)n5)ncc4s3)c2C1` [Example 569], the IC50 is below 0.1 µM at HPK1 (setting [2]) and 0.1 to 1 µM in experiment [1].

For the compound `Cc1cc(Nc2cc3nc(-c4cnn5c4CN(S(C)(=O)=O)CC5)sc3cn2)nc(N2C[C@@H]3C[C@H]2CN3C)n1` [Example 570], the IC50 (on HPK1 (setting [2]); in experiment [1]) was below 0.1 µM in each case.

As to `CC(=O)N1CCC(n2cc(-c3nc4cc(Nc5cc(C)nc(N6C[C@@H]7C[C@H]6CN7C)n5)ncc4s3)cn2)CC1` [Example 571], the IC50 was 0.1 to 1 µM on HPK1 (setting [2]) and 1 to 5 µM in experiment [1].

Consider `Cc1cc(Nc2cc3nc(-c4cnn(C5CCN(S(C)(=O)=O)CC5)c4)sc3cn2)nc(N2C[C@@H]3C[C@H]2CN3C)n1` [Example 572], for which the IC50 at HPK1 (setting [2]) was below 0.1 µM; in experiment [1], 1 to 5 µM.

Regarding `CC(=O)N1CCCc2c(-c3nc4cc(Nc5cc(C)nc(N6C[C@@H]7C[C@H]6CN7C)n5)ncc4s3)cccc21` [Example 573], the IC50 on HPK1 (setting [2]) lay in the range of 0.1 to 1 µM; in experiment [1] it was 1 to 5 µM.

For the compound `Cc1cc(Nc2cc3nc(-c4ccc5c(c4)CN(S(C)(=O)=O)CC5)sc3cn2)nc(N2C[C@@H]3C[C@H]2CN3C)n1` [Example 574], the IC50 at HPK1 (setting [2]) is below 0.1 µM; in experiment [1] it was 5 to 25 µM.

For `Cc1cc(Nc2cc3nc(-c4cnn5c4CNCC5)sc3cn2)nc(N2C[C@@H]3C[C@H]2CN3C)n1` [Example 575], the IC50 at HPK1 (setting [2]) is below 0.1 µM; in experiment [1], 0.1 to 1 µM.

Consider `Cc1cccnc1-c1nc2cc(Nc3ccc4c(n3)[C@@](C)(N)CC4)ncc2s1` [Example 576], for which the IC50 is below 0.1 µM at HPK1 (setting [3]) and 1 to 5 µM in experiment [1].

For the compound `Cc1cccnc1-c1nc2cc(Nc3ccc4c(n3)[C@](C)(N)CC4)ncc2s1` [Example 577], the results for the IC50 (at HPK1 (setting [3]); in experiment [1]) were below 0.1 µM and 1 to 5 µM, respectively.

For `Cc1cccnc1-c1nc2cc(Nc3ccc4c(n3)[C@@H](N)CC4)ncc2s1` [Example 581], the IC50 is below 0.1 µM at HPK1 (setting [3]) and 0.1 to 1 µM in experiment [1].

As for `Cc1cc(Nc2cc3nc(-c4cncc(-c5ncc(F)cc5C)c4)sc3cn2)nc(N2C[C@@H]3C[C@H]2CN3C)n1` [Example 584], the IC50 at HPK1 (setting [2]) was below 0.1 µM; in experiment [1], 0.1 to 1 µM.

Take `Cc1cc(Nc2cc3nc(-c4cccc(-c5ncccc5C(C)C)c4)sc3cn2)nc(N2C[C@@H]3C[C@H]2CN3C)n1` [Example 585]: the IC50 on HPK1 (setting [2]) was below 0.1 µM; in experiment [1], 0.1 to 1 µM.

Regarding `Cc1cc(Nc2cc3nc(-c4cccc(-c5ncccc5C)c4)sc3cn2)nc(N2C[C@@H]3C[C@H]2CN3C)n1` [Example 586], the IC50 is below 0.1 µM at HPK1 (setting [2]) and 0.1 to 1 µM in experiment [1].
